As usually defined, the EC50 is the concentration that produces a half-maximal response.

≈ marks a conversion by molar mass, not a printed value.

Test [1] has as its target T1, PBP3 from Escherichia coli (K-12) (Escherichia coli, UniProt P0AD68).
T1 construct: made in house
Description: Bocillin-FL fluorescence polarization competition binding, E. coli PBP3. In short, it runs like this:
(§1)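 Purified PBPs pre-incubated with inhibitor (E. coli PBP3 1.5 μM, 30 min; P. aeruginosa PBP3 0.75 μM, A. baumannii PBP1a 1 μM and PBP3 0.2 μM, 15 min), then Bocillin-FL 0.1 μM (0.05 μM for PBP1a) added; FP read up to 60 min. EC50 = concentration halving bound Bocillin-FL.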
A general note: Fluorescence polarisation rises when a labelled molecule tumbles more slowly, as on binding a larger partner.

Test [2] concerns B. thailandensis ATCC 700388. The experiment in a line: microbe, parasite or virus in culture. The following applies: Burkholderia thailandensis, ATCC700388, read-out: Minimum inhibitory concentration (MIC), B. thailandensis ATCC 700388. In kind it is cell-based.
Test [3] concerns the target T2, PBP3 from Pseudomonas aeruginosa (PAO1) (Pseudomonas aeruginosa, UniProt G3XD46).
T2 construct: made in house
The experiment in a line: Bocillin-FL fluorescence polarization competition binding, P. aeruginosa PBP3. The following applies: Binding affinity to P. aeruginosa PBP3; fluorescence polarization competition binding assay using Bocillin-FL; read-out: P. aeruginosa PBP3 Potency. The method, boiled down:
as §1

The subject of the next test is A. baumannii CDC-0033. The experiment in a line: microbe, parasite or virus in culture. The following applies: Acinetobacter baumannii, CDC0033, read-out: MIC, A. baumannii CDC-0033. In kind it is cell-based.
The test system of a further test is P. aeruginosa ATCC 35151. The experiment in a line: microbe, parasite or virus in culture. Particulars: Pseudomonas aeruginosa, ATCC35151, read-out: Minimum inhibitory concentration, P. aeruginosa ATCC 35151. It counts as cell-based.
The target of test [4] is T3, PBP3 from Acinetobacter baumannii (ATCC 19606) (Acinetobacter baumannii, UniProt A0ABX6CK25).
T3 sequence (A0ABX6CK25 64-610): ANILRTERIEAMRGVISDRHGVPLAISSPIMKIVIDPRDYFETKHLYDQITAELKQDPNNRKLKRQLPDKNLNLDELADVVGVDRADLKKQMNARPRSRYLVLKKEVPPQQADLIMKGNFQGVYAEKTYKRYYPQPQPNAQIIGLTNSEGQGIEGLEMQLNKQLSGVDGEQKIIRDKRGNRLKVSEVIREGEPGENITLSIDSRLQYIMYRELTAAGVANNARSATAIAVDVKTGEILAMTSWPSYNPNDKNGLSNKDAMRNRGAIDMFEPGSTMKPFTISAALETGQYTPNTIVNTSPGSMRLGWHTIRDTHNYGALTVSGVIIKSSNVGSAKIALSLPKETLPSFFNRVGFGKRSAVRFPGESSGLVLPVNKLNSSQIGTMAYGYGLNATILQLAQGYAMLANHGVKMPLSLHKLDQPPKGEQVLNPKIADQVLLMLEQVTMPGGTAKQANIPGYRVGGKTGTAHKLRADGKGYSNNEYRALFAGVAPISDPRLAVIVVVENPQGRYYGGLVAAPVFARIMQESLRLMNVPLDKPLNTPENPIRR
The experiment in a line: Bocillin-FL fluorescence polarization competition binding, A. baumannii PBP3. Particulars: fluorescence polarization competition binding assay using Bocillin-FL; read-out: A. baumannii PBP3 Potency. In short, it runs like this: as §1

The next test relates to P. aeruginosa CDC-0095. The experiment in a line: microbe, parasite or virus in culture. It counts as cell-based. Particulars: Pseudomonas aeruginosa, CDC0095, read-out: Minimum inhibitory concentration, P. aeruginosa CDC-0095.
The next test relates to P. aeruginosa CDC-0090. Description: microbe, parasite or virus in culture. Particulars: Pseudomonas aeruginosa, CDC0090, read-out: Minimum inhibitory concentration, P. aeruginosa CDC-0090. It counts as cell-based.

T1 sequence (P0AD68 1-577): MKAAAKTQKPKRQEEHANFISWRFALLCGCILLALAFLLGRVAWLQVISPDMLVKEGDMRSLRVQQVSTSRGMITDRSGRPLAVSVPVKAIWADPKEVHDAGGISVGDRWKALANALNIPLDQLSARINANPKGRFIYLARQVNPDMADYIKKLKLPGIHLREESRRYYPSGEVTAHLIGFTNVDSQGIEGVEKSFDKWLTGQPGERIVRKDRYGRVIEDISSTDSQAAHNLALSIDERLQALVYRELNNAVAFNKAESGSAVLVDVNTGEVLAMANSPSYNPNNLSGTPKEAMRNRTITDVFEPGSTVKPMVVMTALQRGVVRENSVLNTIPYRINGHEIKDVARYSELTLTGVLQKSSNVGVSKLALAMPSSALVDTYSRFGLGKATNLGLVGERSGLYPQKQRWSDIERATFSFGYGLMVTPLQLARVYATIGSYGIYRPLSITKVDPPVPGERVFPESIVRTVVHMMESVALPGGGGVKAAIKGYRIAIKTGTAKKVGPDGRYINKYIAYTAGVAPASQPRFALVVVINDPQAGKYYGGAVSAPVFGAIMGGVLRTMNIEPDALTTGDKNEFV
T2 sequence (G3XD46 whole entry): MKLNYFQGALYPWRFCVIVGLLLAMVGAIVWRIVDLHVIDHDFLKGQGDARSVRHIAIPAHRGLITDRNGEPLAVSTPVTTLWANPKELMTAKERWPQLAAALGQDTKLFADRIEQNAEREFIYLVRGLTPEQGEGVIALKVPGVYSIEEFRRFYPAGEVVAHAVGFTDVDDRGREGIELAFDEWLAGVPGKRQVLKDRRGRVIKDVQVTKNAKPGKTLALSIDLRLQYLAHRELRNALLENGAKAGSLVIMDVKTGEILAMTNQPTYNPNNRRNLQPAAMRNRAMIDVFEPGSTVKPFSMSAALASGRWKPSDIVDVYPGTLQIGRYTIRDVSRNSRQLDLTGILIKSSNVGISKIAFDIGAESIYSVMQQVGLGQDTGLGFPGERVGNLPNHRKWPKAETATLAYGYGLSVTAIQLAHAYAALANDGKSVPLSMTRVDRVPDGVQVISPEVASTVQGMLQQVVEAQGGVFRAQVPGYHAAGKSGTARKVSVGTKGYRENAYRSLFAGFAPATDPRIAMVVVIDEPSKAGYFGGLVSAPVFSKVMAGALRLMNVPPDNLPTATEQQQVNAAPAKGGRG

`O=C(NCCCN1CCN(C(=O)NC(C(=O)N[C@H]2Cc3ccc(F)c(C(=O)O)c3OB2O)c2cc(F)c(O)c(O)c2Cl)C(=O)C1=O)c1cc(F)ncc1F` (mixture of isomers) [Example 405] displayed a concentration giving a half-maximal response (EC50) in test [1] of under 10 µM. For the same molecule, the MIC is under 1 µg/mL in test [2]; 2 to 4 µg/mL in the test with A. baumannii CDC-0033; under 1 µg/mL in the test on P. aeruginosa ATCC 35151; 2 to 4 µg/mL in the test with P. aeruginosa CDC-0095; 2 to 4 µg/mL with P. aeruginosa CDC-0090. Besides, the IC50 in test [3] and in test [4] was under 10 µM in each case.

In the case of `O=C(NCCCN1CCN(C(=O)NC(C(=O)N[C@H]2Cc3ccc(F)c(C(=O)O)c3OB2O)c2cc(F)c(O)c(O)c2Cl)C(=O)C1=O)c1cccc(O)c1F` (stereo partly drawn) [Example 406, (3R)-3-(2-(2-chloro-5-fluoro-3,4-dihydroxyphenyl)-2-(4.-(3-(2-fluoro-3-hydroxybenzamido)propyl)-2,3-dioxopiperazine-1-carboxamido)acetamido)-7-fluoro-2-hydroxy-3,4-dihydro-2H-benzo[e][1,2]oxaborinine-8-carboxylic acid], the EC50 in test [1] is under 10 µM. Moreover, the MIC was 2 to 4 µg/mL (≈ 2.57 to 5.14 µM) in test [2]; 2 to 4 µg/mL (≈ 2.57 to 5.14 µM) in the test on A. baumannii CDC-0033; under 1 µg/mL with P. aeruginosa ATCC 35151; under 1 µg/mL in the test with P. aeruginosa CDC-0095; under 1 µg/mL in the test on P. aeruginosa CDC-0090. In addition, the IC50 in test [3] and in test [4] was under 10 µM each time.

Molecule `O=C(NCCCN1CCN(C(=O)N[C@H](C(=O)N[C@H]2Cc3ccc(F)c(C(=O)O)c3OB2O)c2cc(F)c(O)c(O)c2Cl)C(=O)C1=O)c1ccc(O)cc1Cl` (single isomer, unassigned) [Example 470] had a concentration giving a half-maximal response (EC50) in test [1] of 50 to 250 µM. The MIC was over 128 µg/mL in test [2]; 8 to 16 µg/mL (≈ 10.1 to 20.1 µM) in the test on A. baumannii CDC-0033; under 1 µg/mL in the test on P. aeruginosa ATCC 35151; under 1 µg/mL with P. aeruginosa CDC-0095; 2 to 4 µg/mL (≈ 2.52 to 5.04 µM) with P. aeruginosa CDC-0090. Besides, the IC50 in test [3] and in test [4] was 10 to 50 µM each time.

The molecule `O=C(NCCCN1CCN(C(=O)NC(C(=O)N[C@H]2Cc3ccc(F)c(C(=O)O)c3OB2O)c2cc(F)c(O)c(O)c2Cl)C(=O)C1=O)c1cc(O)c(F)c(O)c1F` (stereo partly drawn) [Example 415, (3R)-3-(2-(2-chloro-5-fluoro-3,4-dihydroxyphenyl)-2-(4-(3-(2,4-difluoro-3,5-dihydroxybenzamido)propyl)-2,3-dioxopiperazine-1-carboxamido)acetamido)-7-fluoro-2-hydroxy-3,4-dihydro-2H-benzo[e][1,2]oxaborinine-8-carboxylic acid] registered a 50% effective concentration (EC50) in test [1] of 10 to 50 µM. Further, the MIC in test [2] was 8 to 16 µg/mL (≈ 9.85 to 19.7 µM); with A. baumannii CDC-0033, 2 to 4 µg/mL (≈ 2.46 to 4.93 µM); with P. aeruginosa ATCC 35151 it was under 1 µg/mL; in the test with P. aeruginosa CDC-0095, under 1 µg/mL; with P. aeruginosa CDC-0090, under 1 µg/mL. Further, the IC50 in test [3] and in test [4] was under 10 µM in each case.

`O=C(O)c1c(F)ccc2c1OB(O)[C@@H](NC(=O)C(NC(=O)N1CCN(C3CCN(S(=O)(=O)c4ccc(O)cc4)CC3)C(=O)C1=O)c1cc(F)c(O)c(O)c1Cl)C2` (stereo partly drawn) [Example 429, (3R)-3-(2-(2-chloro-5-fluoro-3,4-dihydroxyphenyl)-2-(4-(1-((4-hydroxyphenyl)sulfonyl)piperidin-4-yl)-2,3-dioxopiperazine-1-carboxamido)acetamido)-7-fluoro-2-hydroxy-3,4-dihydro-2H-benzo[e][1,2]oxaborinine-8-carboxylic acid] returned an EC50 in test [1] of under 10 µM. Besides, the MIC is 8 to 16 µg/mL (≈ 9.73 to 19.5 µM) in test [2]; 2 to 4 µg/mL (≈ 2.43 to 4.87 µM) in the test on A. baumannii CDC-0033; under 1 µg/mL with P. aeruginosa ATCC 35151; 2 to 4 µg/mL (≈ 2.43 to 4.87 µM) in the test on P. aeruginosa CDC-0095; under 1 µg/mL in the test with P. aeruginosa CDC-0090. Besides, the IC50 in test [3] and in test [4] was under 10 µM throughout.

In turn, `O=C(NCCCN1CCN(C(=O)N[C@@H](C(=O)N[C@H]2Cc3ccc(F)c(C(=O)O)c3OB2O)c2cc(F)c(O)c(O)c2Cl)C(=O)C1=O)c1ccc(O)cc1Cl` (single isomer, unassigned) [Example 471] gave a half-maximal effective concentration (EC50) in test [1] of under 10 µM. Further, the MIC in test [2] is under 1 µg/mL; with A. baumannii CDC-0033, 2 to 4 µg/mL (≈ 2.52 to 5.04 µM); in the test on P. aeruginosa ATCC 35151, under 1 µg/mL; in the test on P. aeruginosa CDC-0095 it was under 1 µg/mL; in the test with P. aeruginosa CDC-0090, under 1 µg/mL. The IC50 in test [3] and in test [4] was under 10 µM each time.

Take `O=C(NCCCN1CCN(C(=O)NC(C(=O)N[C@H]2Cc3ccc(F)c(C(=O)O)c3OB2O)c2cc(F)c(O)c(O)c2Cl)C(=O)C1=O)c1ccncc1F` (stereo partly drawn) [Example 400, (3R)-3-(2-(2-chloro-5-fluoro-3,4-dihydroxyphenyl)-2-(4-(3-(3-fluoroisonicotinamido)propyl)-2,3-dioxopiperazine-1-carboxamido)acetamido)-7-fluoro-2-hydroxy-3,4-dihydro-2H-benzo[e][1,2]oxaborinine-8-carboxylic acid]: in test [1], the half-maximal effective concentration (EC50) is under 10 µM. Also, the MIC in test [2] was 2 to 4 µg/mL (≈ 2.62 to 5.24 µM); with A. baumannii CDC-0033 it was 2 to 4 µg/mL (≈ 2.62 to 5.24 µM); in the test with P. aeruginosa ATCC 35151, under 1 µg/mL; in the test on P. aeruginosa CDC-0095, 2 to 4 µg/mL (≈ 2.62 to 5.24 µM); in the test on P. aeruginosa CDC-0090, 2 to 4 µg/mL (≈ 2.62 to 5.24 µM). The IC50 in test [3] and in test [4] was under 10 µM in each case.

In test [1], `O=C(NCCCN1CCN(C(=O)NC(C(=O)N[C@H]2Cc3ccc(F)c(C(=O)O)c3OB2O)c2cc(F)c(O)c(O)c2Cl)C(=O)C1=O)c1ccnc(F)c1` (stereo partly drawn) [Example 466, (3R)-3-(2-(2-chloro-5-fluoro-3,4-dihydroxyphenyl)-2-(4-(3-(2-fluoroisonicotinamido)propyl)-2,3-dioxopiperazine-1-carboxamido)acetamido)-7-fluoro-2-hydroxy-3,4-dihydro-2H-benzo[e][1,2]oxaborinine-8-carboxylic acid] displayed a concentration for a half-maximal effect (EC50) of under 10 µM. The MIC in test [2] was 2 to 4 µg/mL (≈ 2.62 to 5.24 µM); in the test on A. baumannii CDC-0033, 2 to 4 µg/mL (≈ 2.62 to 5.24 µM); with P. aeruginosa ATCC 35151 it was under 1 µg/mL; in the test on P. aeruginosa CDC-0095 it was 2 to 4 µg/mL (≈ 2.62 to 5.24 µM); in the test with P. aeruginosa CDC-0090 it was 2 to 4 µg/mL (≈ 2.62 to 5.24 µM). The IC50 in test [3] and in test [4] was under 10 µM throughout.

For the molecule `O=C(NCCCN1CCN(C(=O)NC(C(=O)N[C@H]2Cc3ccc(F)c(C(=O)O)c3OB2O)c2cc(F)c(O)c(O)c2Cl)C(=O)C1=O)c1c(F)ccc(O)c1F` (stereo partly drawn) [Example 413, (3R)-3-(2-(2-chloro-5-fluoro-3,4-dihydroxyphenyl)-2-(4-(3-(2,6-difluoro-3-hydroxybenzamido)propyl)-2,3-dioxopiperazine-1-carboxamido)acetamido)-7-fluoro-2-hydroxy-3,4-dihydro-2H-benzo[e][1,2]oxaborinine-8-carboxylic acid], in test [1], the concentration giving a half-maximal response (EC50) was under 10 µM. Besides, the MIC was 2 to 4 µg/mL (≈ 2.51 to 5.03 µM) in test [2]; 2 to 4 µg/mL (≈ 2.51 to 5.03 µM) in the test with A. baumannii CDC-0033; under 1 µg/mL in the test on P. aeruginosa ATCC 35151; under 1 µg/mL with P. aeruginosa CDC-0095; under 1 µg/mL with P. aeruginosa CDC-0090. In addition, the IC50 in test [3] and in test [4] was under 10 µM throughout.

As for `O=C(NCCCN1CCN(C(=O)NC(C(=O)N[C@H]2Cc3ccc(F)c(C(=O)O)c3OB2O)c2cc(F)c(O)c(O)c2Cl)C(=O)C1=O)c1ccc(O)c(F)c1Cl` (stereo partly drawn) [Example 418, (3R)-3-(2-(4-(3-(2-chloro-3-fluoro-4-hydroxybenzamido)propyl)-2,3-dioxopiperazine-1-carboxamido)-2-(2-chloro-5-fluoro-3,4-dihydroxyphenyl)acetamido)-7-fluoro-2-hydroxy-3,4-dihydro-2H-benzo[e][1,2]oxaborinine-8-carboxylic acid], in test [1], the EC50 was under 10 µM. The MIC was under 1 µg/mL in test [2]; under 1 µg/mL in the test with A. baumannii CDC-0033; under 1 µg/mL with P. aeruginosa ATCC 35151; 2 to 4 µg/mL (≈ 2.46 to 4.92 µM) in the test with P. aeruginosa CDC-0095; under 1 µg/mL in the test with P. aeruginosa CDC-0090. Besides, the IC50 in test [3] and in test [4] was under 10 µM throughout.

`O=C(NCCCN1CCN(C(=O)N[C@@H](C(=O)N[C@H]2Cc3ccc(F)c(C(=O)O)c3OB2O)c2cc(F)c(O)c(O)c2Cl)C(=O)C1=O)c1ccc(O)cc1F` (racemic) [Example 417]: in test [1], the concentration giving a half-maximal response (EC50) is under 10 µM. For the same molecule, the MIC in test [2] is over 128 µg/mL; in the test with A. baumannii CDC-0033, 2 to 4 µg/mL (≈ 2.57 to 5.14 µM); with P. aeruginosa ATCC 35151, under 1 µg/mL; in the test on P. aeruginosa CDC-0095, 8 to 16 µg/mL (≈ 10.3 to 20.6 µM); in the test with P. aeruginosa CDC-0090 it was 8 to 16 µg/mL (≈ 10.3 to 20.6 µM). Moreover, the values for the IC50 in test [3] and in test [4] were under 10 µM and 10 to 50 µM, respectively.

The values above are taken from US20240270762A1, “PENICILLIN-BINDING PROTEIN INHIBITORS” (priority 2021, published 2024).
